Assay results from article doi:10.1101/2024.10.17.618876v1 (biorxiv, 2024).

Molecular target: T1, human lysozyme (HL) (Homo sapiens, UniProt P61626)
T1 sequence (P61626 19-148): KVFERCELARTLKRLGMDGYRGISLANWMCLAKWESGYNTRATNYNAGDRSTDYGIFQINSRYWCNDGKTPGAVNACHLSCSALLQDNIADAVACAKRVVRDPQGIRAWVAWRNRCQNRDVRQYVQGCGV
Assay: isothermal titration calorimetry
Format: binding

Kd: 1550 nM
SMILES: N=C(N)c1ccccc1 [benzamidine]
